Test results as given in article PMC6017454, “A Xylenol Orange-Based Screening Assay for the Substrate Specificity of Flavin-Dependent para-Phenol Oxidases” (Molecules : A Journal of Synthetic Chemistry and Natural …, 2018).

Columns and labels:
[1] = molecular target: T1, His-VAO (vanillyl alcohol oxidase) (Penicillium simplicissimum, UniProt P56216); test: flavin absorption spectrum; trichloroacetic acid precipitation; type: binding; settings: covalent; co-purified
T1 construct: gene VAOA; N-terminal 6xHis tag plus single Gly, tag kept; codon-optimised, E. coli BL21; covalent FAD; VAO predominantly octameric

[2] = molecular target: T2, EUGO-His (eugenol oxidase) (Rhodococcus jostii, UniProt Q0SBK1); test: as above; type: binding; settings: covalent; co-purified
T2 construct: gene RHA1_ro03282; E. coli TOP10; covalent FAD; EUGO dimeric
T2 sequence (Q0SBK1 1-526): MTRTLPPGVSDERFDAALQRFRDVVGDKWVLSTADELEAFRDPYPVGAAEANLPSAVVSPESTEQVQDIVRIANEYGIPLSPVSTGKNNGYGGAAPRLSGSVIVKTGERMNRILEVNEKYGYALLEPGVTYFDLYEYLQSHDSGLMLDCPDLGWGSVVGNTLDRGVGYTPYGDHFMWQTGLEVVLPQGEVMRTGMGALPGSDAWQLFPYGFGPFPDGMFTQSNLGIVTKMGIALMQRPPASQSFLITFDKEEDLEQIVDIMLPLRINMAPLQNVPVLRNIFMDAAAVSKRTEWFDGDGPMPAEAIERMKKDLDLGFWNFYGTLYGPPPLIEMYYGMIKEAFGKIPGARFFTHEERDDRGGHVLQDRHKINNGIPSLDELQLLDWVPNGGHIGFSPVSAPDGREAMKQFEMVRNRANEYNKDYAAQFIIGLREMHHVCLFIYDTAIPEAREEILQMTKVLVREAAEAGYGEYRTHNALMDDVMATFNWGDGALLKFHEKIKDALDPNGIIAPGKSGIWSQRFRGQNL

T1 sequence (P56216 whole entry): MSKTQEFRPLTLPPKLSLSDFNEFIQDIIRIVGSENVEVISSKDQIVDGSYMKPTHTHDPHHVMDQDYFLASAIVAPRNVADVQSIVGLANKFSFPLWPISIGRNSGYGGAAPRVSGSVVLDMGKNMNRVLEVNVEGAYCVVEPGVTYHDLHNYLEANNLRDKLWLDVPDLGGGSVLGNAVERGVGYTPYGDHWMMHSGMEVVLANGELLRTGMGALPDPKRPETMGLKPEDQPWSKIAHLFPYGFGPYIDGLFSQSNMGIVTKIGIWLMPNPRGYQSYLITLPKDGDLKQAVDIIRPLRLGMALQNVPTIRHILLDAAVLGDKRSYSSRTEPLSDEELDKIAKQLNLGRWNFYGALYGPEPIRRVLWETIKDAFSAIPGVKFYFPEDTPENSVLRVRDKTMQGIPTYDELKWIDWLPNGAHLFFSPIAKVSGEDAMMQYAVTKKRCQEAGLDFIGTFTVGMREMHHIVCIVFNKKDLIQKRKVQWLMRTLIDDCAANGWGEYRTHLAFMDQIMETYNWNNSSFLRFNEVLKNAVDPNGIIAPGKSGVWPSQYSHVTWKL

Cc1cc2nc3c(=O)[nH]c(=O)nc-3n(C[C@H](O)[C@H](O)[C@H](O)COP(=O)(O)OP(=O)(O)OC[C@H]3O[C@@H](n4cnc5c(N)ncnc54)[C@H](O)[C@@H]3O)c2cc1C [FAD]
flavin absorption spectrum; trichloroacetic acid precipitation [1]: demonstrating that the flavin cofactor is covalently bound to the protein | flavin absorption spectrum; trichloroacetic acid precipitation [2]: demonstrating that the flavin cofactor is covalently bound to the protein
